Results: patent US20130210807A1, “Tricyclic Compounds as Allosteric Modulators of Metabotropic Glutamate Receptors” (priority 2010, published 2013)

Target: T1, human mGluR4 (Homo sapiens, UniProt Q14833)
T1 construct: expressed in transfected cells; host or cells: HEK-293
Experiment: mGluR4 Assay on HEK-Expressing Human mGluR4 (FLIPR Ca2+ fluorescence, PAM activity)
Type: cell-based
Conditions: Table I; human mGluR4 HEK-293 cells, Fluo4-AM/FLIPR, stimulated with glutamate EC25
Protocol: mGluR4 Assay on HEK-Expressing Human mGluR4
Since, as explained above, the compounds of the present invention are positive allosteric modulators of mGluR4 receptors, which activity was assayed by detecting changes in intracellular Ca^+2 ion concentration using a Ca^+2-sensitive fluorescent dye (Fluo4-(AM)) and a fluorometric imaging plate reader (FLIPR, Molecular Devices, Sunnyvale, Calif.) in accordance with the manufacturers instructions.
Accordingly, 24 hours prior to carrying out an analysis, human mGluR4 HEK-293 cells were plated out in black-walled, clear-bottomed, poly-L-ornithine-coated 384-well plates at a density of 25,000 cells/well in a glutamine/glutamate-free DMEM medium containing fetal bovine serum (10%), penicillin (100 units/mL) and streptomycin (100 micrograms/mL) at 37° C. under 5% CO2. On the day of the assay, the medium was aspirated and the cells were loaded with a 3 micro-molar solution of Fluo4-AM (LuBioScience, Lucerne, Switzerland) in 0.03% pluronic acid. After maintaining the plate 1 hour at 37° C. under 5% CO2 the non-incorporated dye was removed by washing the cell plate with the assay buffer and the cells were left in the dark at room temperature for six hours before evaluating. All assays were performed in a pH 7.4 buffered-solution containing 20 mM HEPES, 142 mM NaCl, 6 mM KCl, 1 mM MgSO4, 1 mM CaCl2, 0.125 mM sulfapyrazone, and 1% glucose.
Basal fluorescence was recorded over 10 seconds, then aliquots of various concentrations of a compound of the invention were added to the cells. Changes in fluorescence level were first monitored for 180 seconds in order to detect any agonist activity attributable to the compound being assayed. Then the cells were stimulated for an additional 110 seconds by that concentration of glutamate yielding 25% of the maximal response to glutamate (EC25). Concentration-response curves of compounds of the invention were generated using Prism GraphPad software (Graph Pad Inc., San Diego, USA). Curves generated were fitted to a four-parameter logistic equation allowing the determination of EC50 values:
Y=Bottom+(Top−Bottom)/(1+10^logEC^50-^X)*Hill Slope.
For each sample assayed, at least three independent measurements were performed. EC50 values thus determined are reported for each of the compounds of the invention in the respective Tables 1 to 3 herein above.

T1 sequence (Q14833 33-912): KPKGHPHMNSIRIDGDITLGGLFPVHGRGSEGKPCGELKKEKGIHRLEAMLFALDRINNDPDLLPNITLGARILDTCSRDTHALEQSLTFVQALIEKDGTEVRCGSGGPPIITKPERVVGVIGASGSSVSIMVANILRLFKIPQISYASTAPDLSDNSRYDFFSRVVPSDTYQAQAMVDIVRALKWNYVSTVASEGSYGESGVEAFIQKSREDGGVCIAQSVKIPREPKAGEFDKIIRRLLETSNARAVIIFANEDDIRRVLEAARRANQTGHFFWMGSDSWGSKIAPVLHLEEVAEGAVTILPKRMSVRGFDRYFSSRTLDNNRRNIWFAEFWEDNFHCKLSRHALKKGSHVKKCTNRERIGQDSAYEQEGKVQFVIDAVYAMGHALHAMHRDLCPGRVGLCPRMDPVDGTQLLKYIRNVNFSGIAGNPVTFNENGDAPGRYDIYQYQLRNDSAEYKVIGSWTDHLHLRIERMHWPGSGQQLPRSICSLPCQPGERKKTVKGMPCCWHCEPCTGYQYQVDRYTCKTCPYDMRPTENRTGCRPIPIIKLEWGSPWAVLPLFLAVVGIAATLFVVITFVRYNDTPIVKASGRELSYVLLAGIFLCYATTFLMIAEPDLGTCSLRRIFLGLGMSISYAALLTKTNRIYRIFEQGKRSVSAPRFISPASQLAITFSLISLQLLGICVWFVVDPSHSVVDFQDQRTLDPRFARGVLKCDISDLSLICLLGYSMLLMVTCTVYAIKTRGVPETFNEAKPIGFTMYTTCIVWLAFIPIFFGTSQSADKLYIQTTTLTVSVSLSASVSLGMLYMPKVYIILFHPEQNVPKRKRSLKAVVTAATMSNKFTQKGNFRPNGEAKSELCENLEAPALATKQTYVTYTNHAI

EC50 [nM] | SMILES
326 | Cc1ccnc(Nc2nc3c(s2)C(C)(C)Cc2[nH]ncc2-3)n1 [Cmpd 1, 4,4-dimethyl-N-(4-methylpyrimidin-2-yl)-5,6-dihydro-4H-[1,3]thiazolo[4,5-e]indazol-2-amine]
28 | Cc1ccnc(Nc2nc3c(ccc4[nH]ncc43)s2)n1 [Cmpd 2, N-(4-methylpyrimidin-2-yl)-6H-[1,3]thiazolo[4,5-e]indazol-2-amine]
9 | c1cnc(Nc2nc3c(ccc4[nH]ncc43)s2)nc1 [Cmpd 3, N-(pyrimidin-2-yl)-6H-[1,3]thiazolo[4,5-e]indazol-2-amine]
753 | CC1(C)Cc2[nH]ncc2-c2nc(Nc3ncc(F)cn3)sc21 [Cmpd 4, N-(5-fluoropyrimidin-2-yl)-4,4-dimethyl-5,6-dihydro-4H-[1,3]thiazolo[4,5-e]indazol-2-amine]
645 | Cc1nc(Nc2nc3c(s2)C(C)(C)Cc2[nH]ncc2-3)ncc1F [Cmpd 5, N-(5-fluoro-4-methylpyrimidin-2-yl)-4,4-dimethyl-5,6-dihydro-4H-[1,3]thiazolo[4,5-e]indazol-2-amine]
1 | Brc1cc2sc(Nc3ncccn3)nc2c2cn[nH]c12 [Cmpd 6, 5-bromo-N-(pyrimidin-2-yl)-6H-[1,3]thiazolo[4,5-e]indazol-2-amine]
2 | Clc1cc2sc(Nc3ncccn3)nc2c2cn[nH]c12 [Cmpd 7, 5-chloro-N-(pyrimidin-2-yl)-6H-[1,3]thiazolo[4,5-e]indazol-2-amine]
129 | Cc1ccnc(Nc2nc3c(cc(C)c4[nH]ncc43)s2)n1 [Cmpd 8, 5-methyl-N-(4-methylpyrimidin-2-yl)-6H-[1,3]thiazolo[4,5-e]indazol-2-amine]
2 | CC1Cc2sc(Nc3ncccn3)nc2-c2cn[nH]c21 (stereo not drawn) [Cmpd 9, 5-methyl-N-(pyrimidin-2-yl)-5,6-dihydro-4H-[1,3]thiazolo[4,5-e]indazol-2-amine]
36 | Cc1ccnc(Nc2nc3c(s2)CC(C)c2[nH]ncc2-3)n1 (stereo not drawn) [Cmpd 10, 5-methyl-N-(4-methylpyrimidin-2-yl)-5,6-dihydro-4H-[1,3]thiazolo[4,5-e]indazol-2-amine]
545 | Cc1ccnc(Nc2nc3c(s2)C2(CC2)Cc2[nH]ncc2-3)n1 [Cmpd 11, N-(4-methylpyrimidin-2-yl)-5′,6′-dihydrospiro[cyclopropane-1,4′-[1,3]thiazolo[4,5-e]indazol]-2′-amine]
35 | c1cnc(Nc2nc3c(s2)C2(CC2)Cc2[nH]ncc2-3)nc1 [Cmpd 12, N-(pyrimidin-2-yl)-5′-6′-dihydrospiro[cyclopropane-1,4′-[1,3]thiazolo[4,5-e]indazol]-2′-amine]
93 | Fc1cnc(Nc2nc3c(s2)C2(CC2)Cc2[nH]ncc2-3)nc1 [Cmpd 13, N-(5-fluoropyrimidin-2-yl)-5′,6′-dihydrospiro[cyclopropane-1,4′-[1,3]thiazolo[4,5-e]indazol]-2′-amine]

Same assay, conditions: Table II; human mGluR4 HEK-293 cells, Fluo4-AM/FLIPR, stimulated with glutamate EC25

EC50 [nM] | SMILES
3 | Cc1ccnc(Nc2nc3c(s2)COC(C)c2[nH]ncc2-3)n1 (racemic) [Cmpd 18, N-(4-methylpyrimidin-2-yl)-6-methyl-6,7-dihydro-4H-pyrazolo[4′,3′:5,6]oxepino[4,3-d][1,3]-thiazol-2-amine]
1420 | c1cnc(Nc2nc3c(s2)Cc2[nH]ncc2-3)nc1 [Cmpd 14, N-(pyrimidin-2-yl)-1,7-dihydropyrazolo[3′,4′:4,5]cyclopenta[1,2-d][1,3]thiazol-5-amine]
8 | Fc1cnc(Nc2nc3c(s2)COCc2[nH]ncc2-3)nc1 [Cmpd 15, N-(5-fluoropyrimidin-2-yl)-6,7-dihydro-4H-pyrazolo[4′,3′:5,6]oxepino[4,3-d][1,3]thiazol-2-amine]
7 | c1cnc(Nc2nc3c(s2)COCc2[nH]ncc2-3)nc1 [Cmpd 16, N-(pyrimidin-2-yl)-6,7-dihydro-4H-pyrazolo[4′,3′:5,6]oxepino[4,3-d][1,3]thiazol-2-amine]
10 | Cc1ccnc(Nc2nc3c(s2)COCc2[nH]ncc2-3)n1 [Cmpd 17, N-(4-methylpyrimidin-2-yl)-6,7-dihydro-4H-pyrazolo[4′,3′:5,6]oxepino[4,3-d][1,3]thiazol-2-amine]
28 | COc1ccnc(Nc2nc3c(s2)COCc2[nH]ncc2-3)n1 [Cmpd 19, N-(4-methoxypyrimidin-2-yl)-6,7-dihydro-4H-pyrazolo[4′,3′:5,6]oxepino[4,3-d][1,3]thiazol-2-amine]
173 | CCc1ccnc(Nc2nc3c(s2)COC(C)c2[nH]ncc2-3)n1 (stereo not drawn) [Cmpd 20, 6-Methyl-N-[4-(ethyl)pyrimidin-2-yl]-6,7-dihydro-4H-pyrazolo[4′,3′:5,6]oxepino[4,3-d][1,3]thiazol-2-amine]
27 | Cc1nc(Nc2nc3c(s2)COC(C)c2[nH]ncc2-3)ncc1F (stereo not drawn) [Cmpd 21, N-(5-Fluoro-4-methylpyrimidin-2-yl)-6-methyl-6,7-dihydro-4H-pyrazolo[4′,3′:5,6]oxepino[4,3-d][1,3]thiazol-2-amine]
186 | Cc1ccnc(Nc2nc3c(s2)C(C)OCc2[nH]ncc2-3)n1 (stereo not drawn) [Cmpd 23, 4-methyl-N-(4-methylpyrimidin-2-yl)-6,7-dihydro-4H-pyrazolo[4′,3′:5,6]oxepino[4,3-d][1,3]thiazol-2-amine]
121 | Cc1ccnc(Nc2nc3c(s2)C(C)OC(C)c2[nH]ncc2-3)n1 (stereo not drawn) [Cmpd 24, 4,6-dimethyl-N-(4-methylpyrimidin-2-yl)-6,7-dihydro-4H-pyrazolo[4′,3′:5,6]oxepino-[4,3-d][1,3]thiazol-2-amine]
994 | c1cnc(Nc2nc3c(s2)CNCc2[nH]ncc2-3)nc1 [Cmpd 27, N-(pyrimidin-2-yl)-4,5,6,7-tetrahydropyrazolo[3,4-c][1,3]thiazolo[4,5-e]azepin-2-amine]
2380 | Cc1ccnc(Nc2nc3c(s2)CN(C)Cc2[nH]ncc2-3)n1 [Cmpd 28, 5-methyl-N-(4-methylpyrimidin-2-yl)-4,5,6,7-tetrahydropyrazolo[3,4-c][1,3]thiazolo[4,5-e]azepin-2-aminee]
39 | Fc1cnc(Nc2nc3c(s2)CCCc2[nH]ncc2-3)nc1 [Cmpd 29, N-(5-fluoropyrimidin-2-yl)-4,5,6,7-tetrahydropyrazolo[3′,4′:6,7]cyclohepta[1,2-d][1,3]thiazol-2-amine]
56 | Cc1ccnc(Nc2nc3c(s2)CCC(F)(F)c2[nH]ncc2-3)n1 [Cmpd 34, 6,6-difluoro-N-(4-methylpyrimidin-2-yl)-4,5,6,7-tetrahydropyrazolo[3′,4′:6,7]cyclohepta[1,2-d][1,3]thiazol-2-amine]
1500 | Cc1ccnc(Nc2nc3c(s2)CCC(=O)c2[nH]ncc2-3)n1 [Cmpd 36, 2-[(4-methylpyrimidin-2-yl)amino]-4,7-dihydropyrazolo[3′,4′:6,7]cyclohepta[1,2-d][1,3]thiazol-6(5H)-one]
20 | Cc1ccnc(Nc2nc3c(s2)CC(F)Cc2[nH]ncc2-3)n1 (stereo not drawn) [Cmpd 40]

Same assay, conditions: text b34; human mGluR4 HEK-293 cells, glutamate EC25

EC50 [nM] | SMILES
70 | Cc1nc(Nc2nc3c(s2)COC(C)c2[nH]ncc2-3)ns1 (stereo not drawn) [Cmpd 38]
